From patent US7794760B2, “Herbal mixture extract of Pleurotus eryngii, Acanthopanacis Cortex and Notoginseng Radix and a composition comprising the same for prevention and treatment of periodontitis” (Oscotec Inc., priority 2005, dated 2010)

System: OPG (osteoprotegerin)
Test: OPG (osteoprotegerin) expression in MG-63 cells, OPG ELISA of supernatant
Format: cell-based, human
Settings: positive control, 20 mM
Protocol: The following three types of cells were used to investigate the effect of the herbal mixture extract or each independent herbal extract of the present invention on the proliferation of osteoblasts. A human osteosarcoma derived cell line MG-63 (ATCC No, CRL-1427) and a mouse muscle derived cell line C2C12 (ATCC No. CRL-1772) were distributed from American Type Culture Collection (ATCC, USA). The cells were cultured in DMEM (Gibco, BRL, USA) supplemented with 10% FBS (fetal bovine serum) in a 37° C. 5% CO2 incubator with 100% humidity.
MG-63 cell culture medium having approximately at the density of 10^6 cells/20 ml was removed from 100 mm cell culture dish. The dish was washed with 5 ml of DPBS (Dulbeco's modified phosphate buffered saline). The buffer was removed and 0.5 ml of trypsin-EDTA was spread on the culture dish, which stood in a CO2 incubator for one minute to take the cells off. The cells were put in 5 ml of DMEM supplemented with 10% FBS and mixed well. […] The numbers of cells were counted by haemacytometer and then distributed into a96-well plate at the concentration of 10^4 cells/well. […]
To increase reliability of the test results, positive control was treated with 20 mM CaCl2 to induce 2˜5 fold higher expression of OPG than in negative control. […] OPG ELISA kit (OCT) was used and optical density was measured at 450 nm. […]

## [Ca+2].[Cl-].[Cl-] [CaCl2]
  expression of OPG versus negative control: 2˜5 fold
